Reference: ChEMBL document CHEMBL4024706 (Eur J Med Chem, 2017)

Key:
[1] = tested on: Hepatocyte growth factor receptor (Homo sapiens), P08581 [M1250T]; assay: Inhibition of human partial length MET M1250T mutant (D1010 to S1367 residues) expressed in bacterial expression system assessed as residual activity at 1 uM by Kinomescan method relative to control
[2] = biological target: Tyrosine-protein kinase ABL1 (Homo sapiens) (UniProt P00519); assay: Inhibition of wild-type human non-phosphorylated ABL1 (S229 to K512 residues) expressed in mammalian expression system assessed as residual activity at 1 uM by Kinomescan method relative to control
[3] = biological target: Serine/threonine-protein kinase PknB (Mycobacterium tuberculosis) (UniProt P9WI81); assay: Inhibition of wild-type Mycobacterium tuberculosis H37Rv ATCC 25618 partial length PKNB (M1 to G279 residues) expressed in mammalian expression system assessed as residual activity at 1 uM by Kinomescan method relative to control
[4] = biological target: Serine/threonine-protein kinase Sgk2 (Homo sapiens) (UniProt Q9HBY8); assay: Inhibition of wild-type human partial length SGK2 (L54 to C427 residues) expressed in mammalian expression system assessed as residual activity at 1 uM by Kinomescan method relative to control
Serine/threonine-protein kinase Sgk2 (Homo sapiens), sequence (Q9HBY8 whole entry, the tested form may be a part): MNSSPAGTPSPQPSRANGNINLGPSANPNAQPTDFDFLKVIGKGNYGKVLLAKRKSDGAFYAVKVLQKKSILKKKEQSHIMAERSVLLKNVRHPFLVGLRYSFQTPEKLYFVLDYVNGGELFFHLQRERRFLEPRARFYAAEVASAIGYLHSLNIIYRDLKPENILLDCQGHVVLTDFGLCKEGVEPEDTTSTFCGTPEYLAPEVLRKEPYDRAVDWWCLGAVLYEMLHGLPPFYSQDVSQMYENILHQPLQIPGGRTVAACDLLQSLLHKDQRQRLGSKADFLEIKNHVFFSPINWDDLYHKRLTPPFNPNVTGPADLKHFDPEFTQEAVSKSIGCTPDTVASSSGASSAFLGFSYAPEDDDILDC

[5] = biological target: Mitogen-activated protein kinase 4 (Homo sapiens) (UniProt P31152); assay: Inhibition of wild-type human partial length ERK4 (M1 to L365 residues) expressed in bacterial expression system assessed as residual activity at 1 uM by Kinomescan method relative to control
[6] = biological target: Fibroblast growth factor receptor 1 (Homo sapiens) (UniProt P11362); assay: Inhibition of wild-type human partial length FGFR1 (P357 to V669 residues) expressed in bacterial expression system assessed as residual activity at 1 uM by Kinomescan method relative to control
Fibroblast growth factor receptor 1 (Homo sapiens), sequence (P11362 22-822 limits assumed): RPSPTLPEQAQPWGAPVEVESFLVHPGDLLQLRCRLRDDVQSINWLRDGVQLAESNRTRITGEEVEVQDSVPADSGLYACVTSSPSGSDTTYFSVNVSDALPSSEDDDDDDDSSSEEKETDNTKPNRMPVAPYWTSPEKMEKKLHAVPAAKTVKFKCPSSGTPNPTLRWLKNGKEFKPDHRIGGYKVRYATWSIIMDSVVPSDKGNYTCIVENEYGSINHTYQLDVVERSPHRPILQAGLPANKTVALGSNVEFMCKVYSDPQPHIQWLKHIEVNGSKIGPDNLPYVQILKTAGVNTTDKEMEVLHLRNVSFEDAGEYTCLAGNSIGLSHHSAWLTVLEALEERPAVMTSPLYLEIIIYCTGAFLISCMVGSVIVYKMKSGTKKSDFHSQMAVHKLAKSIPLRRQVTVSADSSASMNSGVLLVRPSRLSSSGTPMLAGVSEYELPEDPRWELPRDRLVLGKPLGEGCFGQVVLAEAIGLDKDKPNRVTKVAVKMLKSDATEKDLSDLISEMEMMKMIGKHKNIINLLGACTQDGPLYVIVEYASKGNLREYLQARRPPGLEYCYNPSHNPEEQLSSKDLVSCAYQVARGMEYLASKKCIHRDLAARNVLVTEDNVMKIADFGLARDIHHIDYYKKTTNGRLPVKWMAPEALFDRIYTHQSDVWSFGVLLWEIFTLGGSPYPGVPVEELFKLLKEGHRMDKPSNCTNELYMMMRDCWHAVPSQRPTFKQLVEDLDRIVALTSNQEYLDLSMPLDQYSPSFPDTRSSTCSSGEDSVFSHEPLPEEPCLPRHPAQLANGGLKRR

[7] = biological target: CDK4/Cyclin D3 (Homo sapiens) (UniProt P11802+P30281); assay: Inhibition of wild-type human full length CDK4/cyclinD3 (M1 to E303 residues) expressed in mammalian expression system assessed as residual activity at 1 uM by Kinomescan method relative to control
[8] = biological target: Phosphatidylinositol 4-phosphate 3-kinase C2 domain-containing subunit beta (Homo sapiens) (UniProt O00750); assay: Inhibition of wild-type human partial length PIK3C2B (M1 to L1634 residues) expressed in mammalian expression system assessed as residual activity at 1 uM by Kinomescan method relative to control
[9] = biological target: Phosphatidylinositol 4,5-bisphosphate 3-kinase catalytic subunit beta isoform (Homo sapiens) (UniProt P42338); assay: Inhibition of wild-type human partial length PIK3CB (P118 to S1070 residues) expressed in mammalian expression system assessed as residual activity at 1 uM by Kinomescan method relative to control
[10] = biological target: Mitotic checkpoint serine/threonine-protein kinase BUB1 (Homo sapiens) (UniProt O43683); assay: Inhibition of wild-type human partial length BUB1 (Q724 to K1085 residues) expressed in mammalian expression system assessed as residual activity at 1 uM by Kinomescan method relative to control
[11] = biological target: Maternal embryonic leucine zipper kinase (Homo sapiens) (UniProt Q14680); assay: Inhibition of wild-type human full length MELK (M1 to V651 residues) expressed in bacterial expression system assessed as residual activity at 1 uM by Kinomescan method relative to control
[12] = biological target: Serine/threonine-protein kinase haspin (Homo sapiens) (UniProt Q8TF76); assay: Inhibition of wild-type human partial length HASPIN (I452 to K798 residues) expressed in mammalian expression system assessed as residual activity at 1 uM by Kinomescan method relative to control
Serine/threonine-protein kinase haspin (Homo sapiens), sequence (Q8TF76 whole entry, the tested form may be a part): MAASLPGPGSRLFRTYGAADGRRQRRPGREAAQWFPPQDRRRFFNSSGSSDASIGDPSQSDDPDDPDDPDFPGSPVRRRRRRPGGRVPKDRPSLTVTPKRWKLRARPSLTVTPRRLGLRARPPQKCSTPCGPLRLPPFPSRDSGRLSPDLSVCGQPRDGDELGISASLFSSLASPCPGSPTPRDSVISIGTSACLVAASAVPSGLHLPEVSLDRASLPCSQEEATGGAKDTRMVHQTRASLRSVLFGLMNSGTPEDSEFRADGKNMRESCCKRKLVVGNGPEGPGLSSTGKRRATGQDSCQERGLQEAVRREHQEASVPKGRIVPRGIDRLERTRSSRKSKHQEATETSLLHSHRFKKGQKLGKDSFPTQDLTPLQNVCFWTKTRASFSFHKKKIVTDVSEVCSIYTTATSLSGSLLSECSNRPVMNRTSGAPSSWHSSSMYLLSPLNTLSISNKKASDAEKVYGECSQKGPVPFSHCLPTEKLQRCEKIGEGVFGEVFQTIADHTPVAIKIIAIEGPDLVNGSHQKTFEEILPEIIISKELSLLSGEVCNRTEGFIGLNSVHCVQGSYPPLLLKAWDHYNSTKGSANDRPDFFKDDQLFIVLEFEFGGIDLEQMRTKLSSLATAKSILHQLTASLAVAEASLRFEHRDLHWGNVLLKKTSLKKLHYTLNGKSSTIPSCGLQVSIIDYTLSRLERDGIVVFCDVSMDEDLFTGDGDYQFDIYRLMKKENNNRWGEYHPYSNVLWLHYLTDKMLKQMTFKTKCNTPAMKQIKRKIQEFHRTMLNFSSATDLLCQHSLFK

[13] = tested on: Epidermal growth factor receptor (Homo sapiens), P00533 [UNDEFINED MUTATION]; assay: Inhibition of human partial length EGFR L747-T751del/Sins mutant expressed in bacterial expression system assessed as residual activity at 1 uM by Kinomescan method relative to control
[14] = biological target: Discoidin domain-containing receptor 2 (Homo sapiens) (UniProt Q16832); assay: Inhibition of wild-type human partial length DDR2 (V555 to E855 residues) expressed in mammalian expression system assessed as residual activity at 1 uM by Kinomescan method relative to control
Discoidin domain-containing receptor 2 (Homo sapiens), sequence (Q16832 whole entry, the tested form may be a part): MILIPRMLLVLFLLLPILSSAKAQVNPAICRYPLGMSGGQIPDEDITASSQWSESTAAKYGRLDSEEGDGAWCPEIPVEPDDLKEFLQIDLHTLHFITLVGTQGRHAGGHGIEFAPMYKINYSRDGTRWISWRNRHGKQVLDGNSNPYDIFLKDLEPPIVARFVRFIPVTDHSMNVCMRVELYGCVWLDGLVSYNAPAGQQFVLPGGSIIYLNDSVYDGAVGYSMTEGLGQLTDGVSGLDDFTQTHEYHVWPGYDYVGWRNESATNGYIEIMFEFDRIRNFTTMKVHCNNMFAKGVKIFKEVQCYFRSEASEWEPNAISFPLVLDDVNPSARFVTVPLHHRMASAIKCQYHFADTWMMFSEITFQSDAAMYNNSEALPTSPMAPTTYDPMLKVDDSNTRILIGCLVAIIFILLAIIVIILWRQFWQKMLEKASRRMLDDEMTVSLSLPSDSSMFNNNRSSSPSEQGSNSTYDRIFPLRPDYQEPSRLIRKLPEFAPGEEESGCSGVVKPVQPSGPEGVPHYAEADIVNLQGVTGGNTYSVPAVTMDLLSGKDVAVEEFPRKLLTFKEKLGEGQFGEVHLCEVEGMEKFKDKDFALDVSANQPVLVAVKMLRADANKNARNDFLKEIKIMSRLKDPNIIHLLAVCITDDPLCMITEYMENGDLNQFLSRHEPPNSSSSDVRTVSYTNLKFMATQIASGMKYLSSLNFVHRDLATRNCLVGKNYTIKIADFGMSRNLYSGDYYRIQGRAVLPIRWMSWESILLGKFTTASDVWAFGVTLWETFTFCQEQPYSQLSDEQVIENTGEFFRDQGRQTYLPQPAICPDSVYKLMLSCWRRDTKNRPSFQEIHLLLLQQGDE

[15] = biological target: Dual specificity protein kinase TTK (Homo sapiens) (UniProt P33981); assay: Inhibition of wild-type human partial length TTK (N505 to V798 residues) expressed in bacterial expression system assessed as residual activity at 1 uM by Kinomescan method relative to control
[16] = biological target: Tyrosine-protein kinase JAK3 (Homo sapiens) (UniProt P52333); assay: Inhibition of wild-type human partial length JAK3 JH1 catalytic domain (I781 to S1124 residues) expressed in mammalian expression system assessed as residual activity at 1 uM by Kinomescan method relative to control
[17] = biological target: Leucine-rich repeat serine/threonine-protein kinase 2 (Homo sapiens) (UniProt Q5S007); assay: Inhibition of wild-type human partial length LRRK2 (H970 to E2527 residues) expressed in mammalian expression system assessed as residual activity at 1 uM by Kinomescan method relative to control
[18] = biological target: Non-receptor tyrosine-protein kinase TNK1 (Homo sapiens) (UniProt Q13470); assay: Inhibition of wild-type human full length TNK1 (M1 to P661 residues) expressed in bacterial expression system assessed as residual activity at 1 uM by Kinomescan method relative to control
[19] = biological target: Serine/threonine-protein kinase MRCK alpha (Homo sapiens) (UniProt Q5VT25); assay: Inhibition of wild-type human partial length MRCKA (L57 to V418 residues) expressed in bacterial expression system assessed as residual activity at 1 uM by Kinomescan method relative to control
Serine/threonine-protein kinase MRCK alpha (Homo sapiens), sequence (Q5VT25 whole entry, the tested form may be a part): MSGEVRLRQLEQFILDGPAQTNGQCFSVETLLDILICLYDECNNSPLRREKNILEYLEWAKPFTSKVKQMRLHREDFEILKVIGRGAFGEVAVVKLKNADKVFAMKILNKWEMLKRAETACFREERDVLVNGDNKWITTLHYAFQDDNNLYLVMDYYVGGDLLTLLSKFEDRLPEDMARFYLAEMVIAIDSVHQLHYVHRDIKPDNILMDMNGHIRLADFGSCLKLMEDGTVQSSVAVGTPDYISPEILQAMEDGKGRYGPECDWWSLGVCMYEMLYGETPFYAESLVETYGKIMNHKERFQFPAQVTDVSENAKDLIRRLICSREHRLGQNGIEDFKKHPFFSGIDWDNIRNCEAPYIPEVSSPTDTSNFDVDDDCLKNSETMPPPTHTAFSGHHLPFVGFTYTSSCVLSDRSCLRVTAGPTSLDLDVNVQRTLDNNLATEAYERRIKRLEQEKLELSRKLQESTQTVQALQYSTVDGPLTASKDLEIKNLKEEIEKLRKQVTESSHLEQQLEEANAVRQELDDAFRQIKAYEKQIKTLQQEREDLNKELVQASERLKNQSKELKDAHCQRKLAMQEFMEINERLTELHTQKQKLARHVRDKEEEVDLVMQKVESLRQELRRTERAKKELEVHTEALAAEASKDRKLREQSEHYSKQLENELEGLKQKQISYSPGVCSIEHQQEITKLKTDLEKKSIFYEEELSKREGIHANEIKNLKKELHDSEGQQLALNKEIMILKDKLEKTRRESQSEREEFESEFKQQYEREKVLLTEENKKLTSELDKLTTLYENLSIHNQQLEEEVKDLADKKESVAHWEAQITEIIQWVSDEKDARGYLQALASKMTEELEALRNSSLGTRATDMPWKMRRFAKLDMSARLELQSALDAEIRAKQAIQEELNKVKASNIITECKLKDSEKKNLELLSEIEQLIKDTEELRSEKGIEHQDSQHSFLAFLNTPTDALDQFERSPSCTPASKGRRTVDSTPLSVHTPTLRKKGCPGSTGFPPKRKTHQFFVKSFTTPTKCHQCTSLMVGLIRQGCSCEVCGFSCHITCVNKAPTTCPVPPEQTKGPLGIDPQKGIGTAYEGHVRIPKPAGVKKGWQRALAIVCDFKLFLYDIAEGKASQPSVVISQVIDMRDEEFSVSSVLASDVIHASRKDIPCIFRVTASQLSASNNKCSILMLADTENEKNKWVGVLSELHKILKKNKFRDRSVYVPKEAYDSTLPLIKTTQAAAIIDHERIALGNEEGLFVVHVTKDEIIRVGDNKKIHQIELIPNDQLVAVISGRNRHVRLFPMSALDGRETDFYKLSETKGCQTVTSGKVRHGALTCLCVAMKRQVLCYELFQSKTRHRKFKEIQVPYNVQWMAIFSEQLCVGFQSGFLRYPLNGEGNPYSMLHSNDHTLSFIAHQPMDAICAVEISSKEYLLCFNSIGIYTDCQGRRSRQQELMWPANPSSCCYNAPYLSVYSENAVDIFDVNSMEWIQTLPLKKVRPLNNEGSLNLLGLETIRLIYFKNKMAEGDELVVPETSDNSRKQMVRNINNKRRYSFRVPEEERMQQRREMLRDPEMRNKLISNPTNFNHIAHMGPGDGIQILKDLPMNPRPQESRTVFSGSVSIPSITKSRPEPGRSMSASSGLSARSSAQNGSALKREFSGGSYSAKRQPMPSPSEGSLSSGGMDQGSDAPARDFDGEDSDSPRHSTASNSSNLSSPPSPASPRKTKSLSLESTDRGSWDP

[20] = biological target: Serine/threonine-protein kinase TAO3 (Homo sapiens) (UniProt Q9H2K8); assay: Inhibition of wild-type human partial length TAOK3 (M1 to T316 residues) expressed in mammalian expression system assessed as residual activity at 1 uM by Kinomescan method relative to control
[21] = biological target: cAMP-dependent protein kinase catalytic subunit alpha (Homo sapiens) (UniProt P17612); assay: Inhibition of wild-type human partial length PKAC-alpha (G10 to F351 residues) expressed in bacterial expression system assessed as residual activity at 1 uM by Kinomescan method relative to control
[22] = tested on: Epidermal growth factor receptor (Homo sapiens), P00533 [L858R]; assay: Inhibition of human partial length EGFR L858R mutant (R669 to V1011 residues) expressed in bacterial expression system assessed as residual activity at 1 uM by Kinomescan method relative to control
[23] = biological target: Serine/threonine-protein kinase LATS2 (Homo sapiens) (UniProt Q9NRM7); assay: Inhibition of wild-type human partial length LATS2 (Q641 to V1088 residues) expressed in mammalian expression system assessed as residual activity at 1 uM by Kinomescan method relative to control
[24] = biological target: Serine/threonine-protein kinase RIO2 (Homo sapiens) (UniProt Q9BVS4); assay: Inhibition of wild-type human partial length RIOK2 (M1 to D313 residues) expressed in mammalian expression system assessed as residual activity at 1 uM by Kinomescan method relative to control
Serine/threonine-protein kinase RIO2 (Homo sapiens), sequence (Q9BVS4 whole entry, looked up, the tested form may be a part): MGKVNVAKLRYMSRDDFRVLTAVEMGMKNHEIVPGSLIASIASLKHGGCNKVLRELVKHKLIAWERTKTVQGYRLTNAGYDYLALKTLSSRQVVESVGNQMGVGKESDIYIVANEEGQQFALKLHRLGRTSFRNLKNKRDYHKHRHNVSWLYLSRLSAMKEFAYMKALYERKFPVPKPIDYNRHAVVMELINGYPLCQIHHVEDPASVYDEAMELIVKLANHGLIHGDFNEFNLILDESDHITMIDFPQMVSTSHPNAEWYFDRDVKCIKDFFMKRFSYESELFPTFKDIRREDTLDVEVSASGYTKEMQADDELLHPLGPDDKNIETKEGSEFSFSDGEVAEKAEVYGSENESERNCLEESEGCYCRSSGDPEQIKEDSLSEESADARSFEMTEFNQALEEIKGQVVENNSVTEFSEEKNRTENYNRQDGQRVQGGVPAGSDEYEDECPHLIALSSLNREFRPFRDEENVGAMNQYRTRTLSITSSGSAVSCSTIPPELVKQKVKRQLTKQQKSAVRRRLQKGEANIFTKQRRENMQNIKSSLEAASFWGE

With `C=CC(=O)Nc1cc(Nc2cc(-c3cccc(NC(=O)c4ccc(C(C)(C)C)cc4)c3C)cn(C)c2=O)ccc1C(=O)N1CCOCC1` the Activity [1] was 98%, the Activity [2] was 100% and the Activity [3] was 100%. For the same compound, the Activity [4] was 93%, the Activity [5] was 95% and the Activity [6] was 94%. It also gave an Activity [7] of 100%, an Activity [8] of 92% and an Activity [9] of 100%. For the same compound, the Activity [10] was 100%, the Activity [11] was 98% and the Activity [12] was 54%. It also gave an Activity [13] of 100%, an Activity [14] of 93% and an Activity [15] of 99%. The Activity [16] was 79%, the Activity [17] was 100% and the Activity [18] was 92%. For the same compound, the Activity [19] was 98%, the Activity [20] was 94% and the Activity [21] was 95%. The Activity [22] was 100%, the Activity [23] was 100% and the Activity [24] was 100%.
